Source: US8557791B2, “Anti-tumor agent comprising cytidine derivative and carboplatin” (Taiho Pharmaceutical Co., Ltd., priority 2008, dated 2013)

Assays:
[1] = system: human lung cancer strain LX-1; test: Antitumor effect in nude mice with subcutaneously transplanted human lung cancer strain LX-1; assay type: in vivo, mouse; conditions: day 15, LX-1 s.c., i.v. days 1 and 8, ECyd 2 mg/kg, carboplatin 70 mg/kg; for RTV Mean ± SD (Relative Tumor Volume): male nude mice (BALB/cA jcl-nu); for IR (Inhibition Rate of tumor proliferation with respect to control): male nude mice
Description: A fragment (about 2×2 mm) of human lung cancer strain LX-1 was subcutaneously transplanted in the back of each of male nude mice (BALB/cA jcl-nu). When the average tumor volume (longer diameter (mm)×shorter diameter (mm)×shorter diameter (mm)×½) of these mice reached about 200 mm^3, the mice were divided into groups based on the tumor volume (8 mice in each group) (day 0).
Drug administration was started on the day following transplant (day 1). ECyd and carboplatin were administered to a mouse through the caudal vein at a dose of 2 mg/kg and 70 mg/kg, respectively, on days 1 and 8. Mice of a control group were not subjected to drug treatment.
On day 15, the ratio of tumor volume to that at the grouping (Relative Tumor Volume; RTV) was calculated. In addition, percent inhibition of tumor proliferation of a group with respect to the control group (Inhibition Rate (%); IR (%)) was calculated by equation 2.
From the tumor volume on day 15, enhancement in antitumor effect of the combined administration group with respect to the ECyd-only administration group and the carboplatin-only administration group was analyzed through the Student's t-test (both sides). The antitumor effect of the combined administration group with respect to either single administration group had significance value (p value) of less than 0.05, confirming that administration of ECyd and carboplatin in combination is statistically significant. IR (%)=[1−average tumor volume of treated group/average tumor volume of control group]×100 (Equation 2)

[2] = system: human head and neck cancer strain OCC-1; test: Survival of nude rats with subcutaneously transplanted human head and neck cancer strain OCC-1; assay type: in vivo, rat; conditions: carboplatin 40 mg/kg/day vs cisplatin 5 mg/kg/day as employed in the test
Description: Male nude rats (F344/N Jcl-rnu) were divided in terms of body weight into groups (14 rats in each group). To each rat, a fragment (about 2×2 mm) of human head and neck cancer strain OCC-1 was subcutaneously transplanted into the back (day 0). Drug administration was started on the day following transplant (day 1). ECyd was administered to a rat through the caudal vein at a dose of 0.3 mg/kg on days 1, 3, 5, 8, 10, and 12. Carboplatin was administered to a rat through the caudal vein at a dose of 30 mg/kg or 40 mg/kg on days 1 and 8. Cisplatin was administered to a rat through the caudal vein at a dose of 5 mg/kg on day 1. […] Rats of a control group were not subjected to drug treatment.
Thereafter, the survival (days) of each rat was checked, and the survival rate of each group was calculated by the following equation 1. FIGS. 1 to 3 are graphs showing survival rates; in each graph the horizontal axis represents days and the vertical axis represents survival rate. Survival rate (%)=(no. of surviving rats/no. of rats tested)×100 (Equation 1)

Compound | RTV Mean ± SD (Relative Tumor Volume) [1] | IR (Inhibition Rate of tumor proliferation with respect to control) [1] [%] | antitumor effect of the platinum agents compared with each other [2]
C#C[C@@]1(O)[C@@H](CO)O[C@@H](n2ccc(N)nc2=O)[C@@H]1O [ECyd, 1-(3-C-Ethynyl-β-D-ribopentofuranosyl)cytosine] | 5.43 ± 1.51 | 43.8 | 
N.N.O=C([O-])C1(C(=O)[O-])CCC1.[Pt+2] [carboplatin, cis-diammine(1,1-cyclobutanedicarboxylato)platinum(II)] | 5.53 ± 1.75 | 42.8 | almost the same antitumor effect
N.N.[Cl][Pt][Cl] [cisplatin] |  |  | almost the same antitumor effect
